Experiment: mn = molality of the nth substance listed, in mol/kg
Details: 101.3 kPa, Liquid

O [water] + COC(=O)[C@H](C)N.Cl
Details | speed of sound [m/s]
278.15 K, Frequency=2 MHz, Linear variable-path acoustic interferometer, m2 = 0 | 1426.2

Details | mass density [kg/m3]
278.15 K, Pycnometric method, m2 = 0 | 999.96

COC(=O)[C@@H](N)C(C)C.Cl [methyl L-valinate hydrochloride] + O
Details | speed of sound [m/s]
278.15 K, Frequency=2 MHz, Linear variable-path acoustic interferometer, m1 = 0.0389 | 1431.7
278.15 K, Frequency=2 MHz, Linear variable-path acoustic interferometer, m1 = 0.0499 | 1433.3
278.15 K, Frequency=2 MHz, Linear variable-path acoustic interferometer, m1 = 0.0592 | 1434.2
278.15 K, Frequency=2 MHz, Linear variable-path acoustic interferometer, m1 = 0.0705 | 1436.3
278.15 K, Frequency=2 MHz, Linear variable-path acoustic interferometer, m1 = 0.0811 | 1437.4
278.15 K, Frequency=2 MHz, Linear variable-path acoustic interferometer, m1 = 0.0888 | 1438.7
278.15 K, Frequency=2 MHz, Linear variable-path acoustic interferometer, m1 = 0.1015 | 1441.1
278.15 K, Frequency=2 MHz, Linear variable-path acoustic interferometer, m1 = 0.1094 | 1441.3
278.15 K, Frequency=2 MHz, Linear variable-path acoustic interferometer, m1 = 0.1204 | 1443.8
278.15 K, Frequency=2 MHz, Linear variable-path acoustic interferometer, m1 = 0.1307 | 1445.3
278.15 K, Frequency=2 MHz, Linear variable-path acoustic interferometer, m1 = 0.1428 | 1446.5
278.15 K, Frequency=2 MHz, Linear variable-path acoustic interferometer, m1 = 0.1528 | 1448
288.15 K, Frequency=3 MHz, Sing-around technique in a fixed-path interferometer, m1 = 0.0507 | 1472.3
288.15 K, Frequency=3 MHz, Sing-around technique in a fixed-path interferometer, m1 = 0.0607 | 1473.5
288.15 K, Frequency=3 MHz, Sing-around technique in a fixed-path interferometer, m1 = 0.0699 | 1474.5
288.15 K, Frequency=3 MHz, Sing-around technique in a fixed-path interferometer, m1 = 0.0798 | 1475.7
288.15 K, Frequency=3 MHz, Sing-around technique in a fixed-path interferometer, m1 = 0.09 | 1476.9
288.15 K, Frequency=3 MHz, Sing-around technique in a fixed-path interferometer, m1 = 0.0999 | 1478.3
288.15 K, Frequency=3 MHz, Sing-around technique in a fixed-path interferometer, m1 = 0.1099 | 1479.2
288.15 K, Frequency=3 MHz, Sing-around technique in a fixed-path interferometer, m1 = 0.1201 | 1480.4
288.15 K, Frequency=3 MHz, Sing-around technique in a fixed-path interferometer, m1 = 0.1295 | 1481.6
288.15 K, Frequency=3 MHz, Sing-around technique in a fixed-path interferometer, m1 = 0.1399 | 1482.8
288.15 K, Frequency=3 MHz, Sing-around technique in a fixed-path interferometer, m1 = 0.1497 | 1484.3
288.15 K, Frequency=3 MHz, Sing-around technique in a fixed-path interferometer, m1 = 0.16 | 1485.9
298.15 K, Frequency=3 MHz, Sing-around technique in a fixed-path interferometer, m1 = 0.0405 | 1501.4
298.15 K, Frequency=3 MHz, Sing-around technique in a fixed-path interferometer, m1 = 0.0504 | 1502.5
298.15 K, Frequency=3 MHz, Sing-around technique in a fixed-path interferometer, m1 = 0.06 | 1503.7
298.15 K, Frequency=3 MHz, Sing-around technique in a fixed-path interferometer, m1 = 0.0703 | 1504.9
298.15 K, Frequency=3 MHz, Sing-around technique in a fixed-path interferometer, m1 = 0.0804 | 1505.9
298.15 K, Frequency=3 MHz, Sing-around technique in a fixed-path interferometer, m1 = 0.0903 | 1507.1
298.15 K, Frequency=3 MHz, Sing-around technique in a fixed-path interferometer, m1 = 0.1001 | 1508.1
298.15 K, Frequency=3 MHz, Sing-around technique in a fixed-path interferometer, m1 = 0.1103 | 1509.6
298.15 K, Frequency=3 MHz, Sing-around technique in a fixed-path interferometer, m1 = 0.12 | 1510.3
298.15 K, Frequency=3 MHz, Sing-around technique in a fixed-path interferometer, m1 = 0.1305 | 1511.4
298.15 K, Frequency=3 MHz, Sing-around technique in a fixed-path interferometer, m1 = 0.1401 | 1513
298.15 K, Frequency=3 MHz, Sing-around technique in a fixed-path interferometer, m1 = 0.1514 | 1513.8

Details | mass density [kg/m3]
278.15 K, Pycnometric method, m1 = 0.0389 | 1001.17
278.15 K, Pycnometric method, m1 = 0.0499 | 1001.51
278.15 K, Pycnometric method, m1 = 0.0592 | 1001.8
278.15 K, Pycnometric method, m1 = 0.0705 | 1002.15
278.15 K, Pycnometric method, m1 = 0.0811 | 1002.48
278.15 K, Pycnometric method, m1 = 0.0888 | 1002.72
278.15 K, Pycnometric method, m1 = 0.1015 | 1003.1
278.15 K, Pycnometric method, m1 = 0.1094 | 1003.35
278.15 K, Pycnometric method, m1 = 0.1204 | 1003.7
278.15 K, Pycnometric method, m1 = 0.1307 | 1004
278.15 K, Pycnometric method, m1 = 0.1428 | 1004.38
278.15 K, Pycnometric method, m1 = 0.1528 | 1004.7
288.15 K, Vibrating tube method, m1 = 0.0507 | 1000.66
288.15 K, Vibrating tube method, m1 = 0.0607 | 1000.96
288.15 K, Vibrating tube method, m1 = 0.0699 | 1001.25
288.15 K, Vibrating tube method, m1 = 0.0798 | 1001.55
288.15 K, Vibrating tube method, m1 = 0.09 | 1001.87
288.15 K, Vibrating tube method, m1 = 0.0999 | 1002.17
288.15 K, Vibrating tube method, m1 = 0.1099 | 1002.46
288.15 K, Vibrating tube method, m1 = 0.1201 | 1002.78
288.15 K, Vibrating tube method, m1 = 0.1295 | 1003.07
288.15 K, Vibrating tube method, m1 = 0.1399 | 1003.4
288.15 K, Vibrating tube method, m1 = 0.1497 | 1003.7
288.15 K, Vibrating tube method, m1 = 0.16 | 1004
298.15 K, Vibrating tube method, m1 = 0.0405 | 998.23
298.15 K, Vibrating tube method, m1 = 0.0504 | 998.52
298.15 K, Vibrating tube method, m1 = 0.06 | 998.78
298.15 K, Vibrating tube method, m1 = 0.0703 | 999.08
298.15 K, Vibrating tube method, m1 = 0.0804 | 999.37
298.15 K, Vibrating tube method, m1 = 0.0903 | 999.66
298.15 K, Vibrating tube method, m1 = 0.1001 | 999.92
298.15 K, Vibrating tube method, m1 = 0.1103 | 1000.24
298.15 K, Vibrating tube method, m1 = 0.12 | 1000.51
298.15 K, Vibrating tube method, m1 = 0.1305 | 1000.78
298.15 K, Vibrating tube method, m1 = 0.1401 | 1001.06
298.15 K, Vibrating tube method, m1 = 0.1514 | 1001.39
